Laboratory results taken from patent publication US11746100B2 (GLOBAL BLOOD THERAPEUTICS, INC., priority 2020, dated 2023).

Target: T1, human ferroportin (Homo sapiens, UniProt Q9NP59)
T1 construct: luciferase reporter (read with the Nano-Glo Luciferase Assay System); expressed in transfected cells; host or cells: CHO cells, stably transfected, expression induced with doxycycline
T1 sequence (Q9NP59 1-571): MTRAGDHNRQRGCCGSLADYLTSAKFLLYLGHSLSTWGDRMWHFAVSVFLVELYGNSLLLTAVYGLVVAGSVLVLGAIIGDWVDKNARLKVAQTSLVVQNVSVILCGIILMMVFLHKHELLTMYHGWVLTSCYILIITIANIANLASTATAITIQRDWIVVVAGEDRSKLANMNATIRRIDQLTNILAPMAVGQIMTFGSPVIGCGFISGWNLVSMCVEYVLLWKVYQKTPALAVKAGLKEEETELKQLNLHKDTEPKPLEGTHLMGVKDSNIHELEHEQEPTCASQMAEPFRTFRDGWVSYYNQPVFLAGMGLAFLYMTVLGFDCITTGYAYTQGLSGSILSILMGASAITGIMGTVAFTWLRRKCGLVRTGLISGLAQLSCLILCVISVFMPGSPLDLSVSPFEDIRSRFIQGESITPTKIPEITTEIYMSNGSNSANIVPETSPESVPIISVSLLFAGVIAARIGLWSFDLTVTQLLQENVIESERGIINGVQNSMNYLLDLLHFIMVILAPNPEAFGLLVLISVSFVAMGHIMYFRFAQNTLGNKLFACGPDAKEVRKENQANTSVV
Assay: Biological in-vitro ferroportin internalization assay (luciferase reporter)
Format: cell-based
Settings: average pEC50; stably-transfected CHO cell line expressing human ferroportin tagged to a luciferase reporter; 6 h incubation with test compound
Method in brief: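 Read-out is Nano-Glo luciferase signal after 6 h compound exposure, with average pEC50 derived. Cells are a stable CHO line carrying luciferase-tagged human ferroportin, pre-loaded 24 h with ferric ammonium citrate and doxycycline-induced for 24 h.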

First: c1ccc(-c2nc3c(c(N4CCCc5ccccc54)n2)CCC3)nc1 [Compound 76, 1-[2-(pyridin-2-yl)-5H,6H,7H-cyclopenta[d]pyrimidin-4-yl]-1,2,3,4-tetrahydroquinoline]
Second: CN(CC(=O)Nc1ccccc1F)c1nc(-c2ccccn2)nc2c1CCC2 [Compound 22, N-(2-fluorophenyl)-2-{methyl[2-(pyridin-2-yl)-5H,6H,7H-cyclopenta[d]pyrimidin-4-yl]amino}acetamide]
The pEC50 of the first is lower: 6 for the first, 7 for the second.

`CN(CC(=O)NC(C)(C)C)c1nc(-c2cc(OCCS(C)(=O)=O)ccn2)nc2c1CCC2` [Compound 507, N-tert-butyl-2-({2-[4-(2-methanesulfonylethoxy)pyridin-2-yl]-5H,6H,7H-cyclopenta[d]pyrimidin-4-yl}(methyl)amino)acetamide] and `CN(CC(=O)NC(C)(C)C)c1nc(-c2cc(OCCF)ccn2)nc2c1CCC2` [Compound 241, N-tert-butyl-2-({2-[4-(2-fluoroethoxy)pyridin-2-yl]-5H,6H,7H-cyclopenta[d]pyrimidin-4-yl}(methyl)amino)acetamide] are within 0.2 log units of each other in pEC50: 7.9 for the first, 8 for the second.

First: CN(CC(=O)NC(C)(C)C)c1cc(-c2ccccn2)nc2c1CCC2 [Compound 16, N-tert-butyl-2-{methyl[2-(pyridin-2-yl)-5H,6H,7H-cyclopenta[b]pyridin-4-yl]amino}acetamide]
Second: CC(C)(C)NC(=O)CNc1cc(-c2ccccn2)nc2c1CCC2 [Compound 9, N-tert-butyl-2-{[2-(pyridin-2-yl)-5H,6H,7H-cyclopenta[b]pyridin-4-yl]amino}acetamide]
The pEC50 of the first is higher: 6.6 for the first, 6.2 for the second.

Going from `COc1ccc(NC(=O)CN(C)c2nc(-c3cc(O[C@H]4CCOC4)ccn3)nc3c2CCC3)cn1` [Compound 347] to `COc1ccnc(-c2nc3c(c(N(C)CC(=O)Nc4cnn(C)c4)n2)CCC3)c1` [Compound 154, 2-{[2-(4-methoxypyridin-2-yl)-5H,6H,7H-cyclopenta[d]pyrimidin-4-yl](methyl)amino}-N-(1-methyl-1H-pyrazol-4-yl)acetamide], the pEC50 falls from 7.6 to 7.4.

Compared with `CN(CC(=O)NC(C)(C)C)c1nc(-c2cc(OCCN3CC[C@@H](F)C3)ccn2)nc2c1CCC2` [Compound 473, N-tert-butyl-2-{[2-(4-{2-[(3R)-3-fluoropyrrolidin-1-yl]ethoxy}pyridin-2-yl)-5H,6H,7H-cyclopenta[d]pyrimidin-4-yl](methyl)amino}acetamide], `CN1CC[C@H](Oc2ccnc(-c3nc4c(c(N(C)CC(=O)NC(C)(C)C)n3)CCC4)c2)C1` [Compound 438, N-tert-butyl-2-{methyl[2-(4-{[(3S)-1-methylpyrrolidin-3-yl]oxy}pyridin-2-yl)-5H,6H,7H-cyclopenta[d]pyrimidin-4-yl]amino}acetamide] is lower in pEC50: 8.3 for the first, 7.7 for the second.

`CN(c1nc(-c2ccccn2)nc2c1CCC2)[C@H]1CCN(c2ccc(F)cc2)C1=O` [Compound 206, (3S)-1-(4-fluorophenyl)-3-{methyl[2-(pyridin-2-yl)-5H,6H,7H-cyclopenta[d]pyrimidin-4-yl]amino}pyrrolidin-2-one] and `CN(CC(=O)NC1(C(F)(F)F)CC1)c1nc(-c2ccccn2)nc2c1CCC2` [Compound 98, 2-{methyl[2-(pyridin-2-yl)-5H,6H,7H-cyclopenta[d]pyrimidin-4-yl]amino}-N-[1-(trifluoromethyl)cyclopropyl]acetamide] are within 0.2 log units of each other in pEC50: 6.9 for the first, 7 for the second.

`CN(C)C(=O)COc1ccnc(-c2nc3c(c(N(C)CC(=O)NC(C)(C)C)n2)CCC3)c1` [Compound 403, 2-{[2-(4-{[(tert-butylcarbamoyl)methyl](methyl)amino}-5H,6H,7H-cyclopenta[d]pyrimidin-2-yl)pyridin-4-yl]oxy}-N,N-dimethylacetamide] and `C[C@@H](O)COc1ccnc(-c2nc3c(c(N(C)CC(=O)NC(C)(C)C)n2)CCC3)c1` [Compound 366, N-tert-butyl-2-[(2-{4-[(2R)-2-hydroxypropoxy]pyridin-2-yl}-5H,6H,7H-cyclopenta[d]pyrimidin-4-yl)(methyl)amino]acetamide] are within 0.2 log units of each other in pEC50: 7.6 for the first, 7.7 for the second.

Going from `CC(C)[C@H](O)COc1ccnc(-c2nc3c(c(N(C)CC(=O)NC(C)(C)C)n2)CCC3)c1` [Compound 386, N-tert-butyl-2-[(2-{4-[(2S)-2-hydroxy-3-methylbutoxy]pyridin-2-yl}-5H,6H,7H-cyclopenta[d]pyrimidin-4-yl)(methyl)amino]acetamide] to `COc1ccnc(-c2nc3c(c(N(C)CC(=O)NC(C)(C)C)n2)CCC3)c1` [Compound 34, N-tert-butyl-2-{[2-(4-methoxypyridin-2-yl)-5H,6H,7H-cyclopenta[d]pyrimidin-4-yl](methyl)amino}acetamide], the pEC50 falls from 8.4 to 7.9.

Going from `CN(CC(=O)N1CCCCCC1)c1nc(-c2cc(OCCO)ccn2)nc2c1CCC2` [Compound 357, 1-(azepan-1-yl)-2-({2-[4-(2-hydroxyethoxy)pyridin-2-yl]-5H,6H,7H-cyclopenta[d]pyrimidin-4-yl}(methyl)amino)ethan-1-one] to `COc1ccnc(-c2nc3c(c(N(C)CC(=O)NCCO)n2)CCC3)c1` [Compound 133, N-(2-hydroxyethyl)-2-{[2-(4-methoxypyridin-2-yl)-5H,6H,7H-cyclopenta[d]pyrimidin-4-yl](methyl)amino}acetamide], the pEC50 falls from 7.7 to 7.

First: COc1ccc(NC(=O)CN(C)c2nc(-c3cc(OC(F)F)ccn3)nc3c2CCC3)nc1 [Compound 217, 2-({2-[4-(difluoromethoxy)pyridin-2-yl]-5H,6H,7H-cyclopenta[d]pyrimidin-4-yl}(methyl)amino)-N-(5-methoxypyridin-2-yl)acetamide]
Second: CN(CC(=O)Nc1ccc(Cl)cc1)c1nc(-c2cc(OCCO)ccn2)nc2c1CCC2 [Compound 339, N-(4-chloropehnyl)-2-({2-[4-(2-hydroxyethoxy)pyridin-2-yl]-5H,6H,7H-cyclopenta[d]pyrimidin-4-yl}(methyl)amino)acetamide]
The pEC50 of the first is lower: 6.9 for the first, 8.2 for the second.

Going from `CCN(Cc1ncccn1)c1nc(-c2ccccn2)nc2c1CCC2` [Compound 80, N-ethyl-2-(pyridin-2-yl)-N-[(pyrimidin-2-yl)methyl]-5H,6H,7H-cyclopenta[d]pyrimidin-4-amine] to `CN(CC(=O)Nc1cccnc1)c1nc(-c2cc3ccccc3cn2)nc2c1CCC2` [Compound 228], the pEC50 rises from 6.8 to 7.1.

Going from `CN(CC(=O)NC(C)(C)C)c1nc(-c2cc(OCC(C)(C)N(C)C)ccn2)nc2c1CCC2` [Compound 404, N-tert-butyl-2-[(2-{4-[2-(dimethylamino)-2-methylpropoxy]pyridin-2-yl}-5H,6H,7H-cyclopenta[d]pyrimidin-4-yl)(methyl)amino]acetamide] to `CCNC(=O)CN(C)c1nc(-c2cc(OCC(C)(C)O)ccn2)nc2c1CCC2` [Compound 390, N-ethyl-2-({2-[4-(2-hydroxy-2-methylpropoxy)pyridin-2-yl]-5H,6H,7H-cyclopenta[d]pyrimidin-4-yl}(methyl)amino)acetamide], the pEC50 falls from 8 to 7.8.

First: Cc1cc(OCCO)cc(-c2nc3c(c(N(C)CC(=O)NC(C)(C)C)n2)CCC3)n1 [Compound 427, N-tert-butyl-2-({2-[4-(2-hydroxyethoxy)-6-methylpyridin-2-yl]-5H,6H,7H-cyclopenta[d]pyrimidin-4-yl}(methyl)amino)acetamide]
Second: COc1cnc(-c2nc3c(c(N(C)CC(=O)NC(C)(C)C)n2)CCC3)cc1OC [Compound 145, N-tert-butyl-2-{[2-(4,5-dimethoxypyridin-2-yl)-5H,6H,7H-cyclopenta[d]pyrimidin-4-yl](methyl)amino}acetamide]
The pEC50 of the first is higher: 7.6 for the first, 6.9 for the second.

Going from `CN(C)CCOc1ccnc(-c2nc3c(c(N(CC(=O)NC(C)(C)C)CC(F)(F)F)n2)CCC3)c1` [Compound 470, N-tert-butyl-2-[(2-{4-[2-(dimethylamino)ethoxy]pyridin-2-yl}-5H,6H,7H-cyclopenta[d]pyrimidin-4-yl)(2,2,2-trifluoroethyl)amino]acetamide] to `C[C@H](C(=O)NC(C)(C)C)N(C)c1nc(-c2cc(OCCN(C)C)ccn2)nc2c1CCC2` [Compound 408, (2R)—N-tert-butyl-2-[(2-{4-[2-(dimethylamino)ethoxy]pyridin-2-yl}-5H,6H,7H-cyclopenta[d]pyrimidin-4-yl)(methyl)amino]propanamide], the pEC50 rises from 7.2 to 8.5.

`CN(CC(=O)NC1(C(F)(F)F)CC1)c1nc(-c2cc(OCC(C)(C)O)ccn2)nc2c1CCC2` [Compound 337, 2-({2-[4-(2-hydroxy-2-methylpropoxy)pyridin-2-yl]-5H,6H,7H-cyclopenta[d]pyrimidin-4-yl}(methyl)amino)-N-[1-(trifluoromethyl)cyclopropyl]aceta-mide] and `CN(CC(=O)NC(C)(C)C)c1nc(-c2cc(C3CC3)ccn2)nc2c1CCC2` [Compound 57, N-tert-butyl-2-{[2-(4-cyclopropylpyridin-2-yl)-5H,6H,7H-cyclopenta[d]pyrimidin-4-yl](methyl)amino}acetamide] are within 0.2 log units of each other in pEC50: 7.4 for the first, 7.5 for the second.

`CN(CC(=O)NC(C)(C)C)c1nc(-c2cc3occc3cn2)nc2c1CCC2` [Compound 341, N-tert-butyl-2-[(2-{furo[3,2-c]pyridin-6-yl}-5H,6H,7H-cyclopenta[d]pyrimidin-4-yl)(methyl)amino]acetamide] gave a pEC50 of 7.6.
